We go through one molecule from ChEMBL document CHEMBL5058646 (2022).

The target of assay [1] is Mu-type opioid receptor (Homo sapiens, UniProt P35372). The assay is described as follows: GPCRScan assay: inhibition of MOR. On the set-up: radioligand conc. used [nm] 1.0 – 2.0, parental cells stable HEK.
For assay [2], the target named is Beta-3 adrenergic receptor (Homo sapiens, UniProt P13945). The assay is described as follows: GPCRScan assay: inhibition of Beta3. Set-up: radioligand conc. used [nm] 0.2 – 0.5, parental cells HEK Flp-In.
Beta-3 adrenergic receptor, sequence (P13945 whole entry): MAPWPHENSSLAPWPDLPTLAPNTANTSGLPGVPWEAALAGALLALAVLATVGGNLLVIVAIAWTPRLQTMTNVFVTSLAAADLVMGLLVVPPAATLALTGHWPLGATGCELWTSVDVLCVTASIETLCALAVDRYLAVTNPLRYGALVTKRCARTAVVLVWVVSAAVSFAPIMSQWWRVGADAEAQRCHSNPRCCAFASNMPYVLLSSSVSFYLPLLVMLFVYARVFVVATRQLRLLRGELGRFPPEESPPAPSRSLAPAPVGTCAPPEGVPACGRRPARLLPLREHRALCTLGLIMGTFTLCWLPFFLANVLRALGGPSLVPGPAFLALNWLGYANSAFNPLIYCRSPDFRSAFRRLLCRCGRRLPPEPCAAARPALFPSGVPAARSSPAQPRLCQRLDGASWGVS
Assay [3] deals with Calcium/calmodulin-dependent protein kinase kinase 2 (Homo sapiens) (UniProt Q96RR4). Nature of the assay: CAMKK2 SGC Tm panel (DSF). Particulars: Compound concentration 20.0 uM.
Calcium/calmodulin-dependent protein kinase kinase 2 (Homo sapiens), sequence (Q96RR4 2-588 limits assumed): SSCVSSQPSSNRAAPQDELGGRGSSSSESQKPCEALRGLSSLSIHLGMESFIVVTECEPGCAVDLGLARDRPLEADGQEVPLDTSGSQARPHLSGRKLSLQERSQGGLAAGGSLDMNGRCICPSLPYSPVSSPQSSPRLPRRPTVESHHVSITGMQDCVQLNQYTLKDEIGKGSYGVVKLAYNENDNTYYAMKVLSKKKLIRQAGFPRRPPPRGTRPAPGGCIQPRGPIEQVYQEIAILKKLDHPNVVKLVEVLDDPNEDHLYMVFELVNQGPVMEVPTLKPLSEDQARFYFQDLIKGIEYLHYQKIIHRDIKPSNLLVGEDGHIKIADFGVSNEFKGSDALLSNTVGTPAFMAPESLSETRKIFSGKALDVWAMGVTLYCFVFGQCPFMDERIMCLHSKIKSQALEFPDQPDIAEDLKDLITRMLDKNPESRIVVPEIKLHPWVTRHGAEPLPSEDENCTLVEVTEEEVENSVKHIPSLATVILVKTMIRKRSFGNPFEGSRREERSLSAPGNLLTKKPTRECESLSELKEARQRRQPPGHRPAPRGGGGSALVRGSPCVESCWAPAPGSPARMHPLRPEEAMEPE
The target of assay [4] is Ephrin type-A receptor 4 (Homo sapiens) (UniProt P54764). The assay is described as follows: EPHA4 SGC Tm panel (DSF). Particulars: Compound concentration 20.0 uM.
In assay [5] the target is Ephrin type-B receptor 1 (Homo sapiens) (UniProt P54762). Nature of the assay: EPHB1 SGC Tm panel (DSF). Particulars: Compound concentration 20.0 uM.
In assay [6] the target is Mitogen-activated protein kinase kinase kinase 5 (Homo sapiens) (UniProt Q99683). The assay is described as follows: MAP3K5 SGC Tm panel (DSF). The settings on record: Compound concentration 20.0 uM.
Mitogen-activated protein kinase kinase kinase 5 (Homo sapiens), sequence (Q99683 whole entry): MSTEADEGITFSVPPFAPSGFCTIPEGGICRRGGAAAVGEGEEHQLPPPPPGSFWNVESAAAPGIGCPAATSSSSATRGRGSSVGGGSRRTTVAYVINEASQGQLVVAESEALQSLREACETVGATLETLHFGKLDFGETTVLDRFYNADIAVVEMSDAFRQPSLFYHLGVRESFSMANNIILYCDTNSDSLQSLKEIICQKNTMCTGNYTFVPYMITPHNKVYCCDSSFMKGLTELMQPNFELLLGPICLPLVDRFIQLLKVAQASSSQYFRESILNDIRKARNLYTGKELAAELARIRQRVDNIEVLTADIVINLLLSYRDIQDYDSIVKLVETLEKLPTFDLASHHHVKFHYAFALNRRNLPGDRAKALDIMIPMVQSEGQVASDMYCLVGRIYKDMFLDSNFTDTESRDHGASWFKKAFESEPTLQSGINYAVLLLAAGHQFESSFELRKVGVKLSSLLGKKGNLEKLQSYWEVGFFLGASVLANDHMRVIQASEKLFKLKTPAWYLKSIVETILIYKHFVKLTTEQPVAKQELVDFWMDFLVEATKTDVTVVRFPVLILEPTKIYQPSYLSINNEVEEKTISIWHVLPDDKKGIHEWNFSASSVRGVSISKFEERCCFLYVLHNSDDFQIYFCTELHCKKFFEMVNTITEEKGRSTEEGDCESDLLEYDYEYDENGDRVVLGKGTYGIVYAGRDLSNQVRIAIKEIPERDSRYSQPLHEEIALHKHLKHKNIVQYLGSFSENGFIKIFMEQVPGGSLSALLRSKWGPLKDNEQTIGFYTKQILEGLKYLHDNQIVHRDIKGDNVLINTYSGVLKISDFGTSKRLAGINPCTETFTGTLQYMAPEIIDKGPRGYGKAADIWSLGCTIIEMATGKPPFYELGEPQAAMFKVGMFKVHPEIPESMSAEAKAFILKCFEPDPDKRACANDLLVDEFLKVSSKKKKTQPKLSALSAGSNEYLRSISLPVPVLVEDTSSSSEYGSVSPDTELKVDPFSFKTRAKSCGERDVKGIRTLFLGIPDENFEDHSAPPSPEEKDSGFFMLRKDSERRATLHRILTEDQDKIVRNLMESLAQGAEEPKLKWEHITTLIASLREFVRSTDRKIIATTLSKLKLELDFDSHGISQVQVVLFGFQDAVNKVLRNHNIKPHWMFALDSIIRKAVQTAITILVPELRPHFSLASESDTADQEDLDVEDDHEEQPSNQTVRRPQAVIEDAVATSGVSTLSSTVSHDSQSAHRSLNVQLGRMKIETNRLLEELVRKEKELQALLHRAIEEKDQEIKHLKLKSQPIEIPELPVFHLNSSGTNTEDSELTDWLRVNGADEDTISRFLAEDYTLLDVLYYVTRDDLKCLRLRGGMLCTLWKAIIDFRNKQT
The target of assay [7] is Serine/threonine-protein kinase pim-3 (Homo sapiens) (UniProt Q86V86). Nature of the assay: PIM3 SGC Tm panel (DSF). Particulars: Compound concentration 20.0 uM.
In assay [8] the target is Serine/threonine-protein kinase RIO1 (Homo sapiens) (UniProt Q9BRS2). Nature of the assay: RIOK1 SGC Tm panel (DSF). Particulars: Compound concentration 20.0 uM.
Assay [9] deals with Ribosomal protein S6 kinase alpha-5 (Homo sapiens) (UniProt O75582). The assay is described as follows: RPS6KA5 SGC Tm panel (DSF). The settings on record: Compound concentration 20.0 uM.
Ribosomal protein S6 kinase alpha-5 (Homo sapiens), sequence (O75582 whole entry, looked up): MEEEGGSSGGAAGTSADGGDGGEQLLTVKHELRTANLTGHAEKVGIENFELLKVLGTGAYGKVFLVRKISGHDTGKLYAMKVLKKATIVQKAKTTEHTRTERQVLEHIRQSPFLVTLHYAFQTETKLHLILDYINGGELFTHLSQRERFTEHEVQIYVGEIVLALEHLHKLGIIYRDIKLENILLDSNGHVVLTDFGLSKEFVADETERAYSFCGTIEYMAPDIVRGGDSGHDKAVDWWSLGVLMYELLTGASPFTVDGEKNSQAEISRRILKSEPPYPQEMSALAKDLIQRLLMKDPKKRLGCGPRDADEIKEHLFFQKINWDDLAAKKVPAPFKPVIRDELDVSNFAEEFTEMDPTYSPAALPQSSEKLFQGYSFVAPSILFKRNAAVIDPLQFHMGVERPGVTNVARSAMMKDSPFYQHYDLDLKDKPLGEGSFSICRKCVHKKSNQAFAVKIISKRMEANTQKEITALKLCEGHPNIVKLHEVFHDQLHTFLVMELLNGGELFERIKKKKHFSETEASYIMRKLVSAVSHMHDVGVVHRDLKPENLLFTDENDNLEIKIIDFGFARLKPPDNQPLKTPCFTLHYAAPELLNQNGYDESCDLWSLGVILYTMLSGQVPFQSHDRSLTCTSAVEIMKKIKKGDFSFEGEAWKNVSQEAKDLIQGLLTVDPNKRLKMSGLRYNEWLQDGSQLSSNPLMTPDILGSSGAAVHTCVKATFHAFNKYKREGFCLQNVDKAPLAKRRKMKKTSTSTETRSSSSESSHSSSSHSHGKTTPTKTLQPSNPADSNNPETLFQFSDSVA
Assay [10] addresses SRSF protein kinase 1 (Homo sapiens) (UniProt Q96SB4). Nature of the assay: SRPK1 SGC Tm panel (DSF). The settings on record: Compound concentration 20.0 uM.
Assay [11] concerns the target Serine/threonine-protein kinase ULK3 (Homo sapiens) (UniProt Q6PHR2). Nature of the assay: ULK3 SGC Tm panel (DSF). Particulars: Compound concentration 20.0 uM.
For assay [12], the target named is 5-hydroxytryptamine receptor 2B (Homo sapiens) (UniProt P41595). The settings on record: Compound concentration 10.0 uM.
5-hydroxytryptamine receptor 2B (Homo sapiens), sequence (P41595 whole entry): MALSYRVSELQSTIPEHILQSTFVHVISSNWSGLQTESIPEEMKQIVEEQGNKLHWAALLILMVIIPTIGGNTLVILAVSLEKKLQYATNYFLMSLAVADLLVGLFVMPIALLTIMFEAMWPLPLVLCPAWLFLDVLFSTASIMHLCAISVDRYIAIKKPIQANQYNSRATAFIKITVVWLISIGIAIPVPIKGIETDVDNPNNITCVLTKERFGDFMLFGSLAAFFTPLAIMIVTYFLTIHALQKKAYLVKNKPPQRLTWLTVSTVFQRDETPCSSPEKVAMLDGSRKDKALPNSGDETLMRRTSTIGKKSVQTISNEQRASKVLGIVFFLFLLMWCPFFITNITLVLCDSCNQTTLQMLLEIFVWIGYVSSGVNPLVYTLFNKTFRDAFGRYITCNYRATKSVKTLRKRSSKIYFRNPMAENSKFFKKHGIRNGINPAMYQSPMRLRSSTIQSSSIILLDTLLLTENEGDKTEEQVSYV
Assay [13] addresses 5-hydroxytryptamine receptor 5A (Homo sapiens) (UniProt P47898). The settings on record: Compound concentration 10.0 uM.
Assay [14] concerns the target B-cell lymphoma 6 protein (Homo sapiens, UniProt P41182). Particulars: SUD4, Compound concentration 1.0 uM.
The target in assay [15] is Transcription regulator protein BACH2 (Homo sapiens) (UniProt Q9BYV9). The settings on record: SUD4, Compound concentration 1.0 uM.
Transcription regulator protein BACH2 (Homo sapiens), sequence (Q9BYV9 whole entry): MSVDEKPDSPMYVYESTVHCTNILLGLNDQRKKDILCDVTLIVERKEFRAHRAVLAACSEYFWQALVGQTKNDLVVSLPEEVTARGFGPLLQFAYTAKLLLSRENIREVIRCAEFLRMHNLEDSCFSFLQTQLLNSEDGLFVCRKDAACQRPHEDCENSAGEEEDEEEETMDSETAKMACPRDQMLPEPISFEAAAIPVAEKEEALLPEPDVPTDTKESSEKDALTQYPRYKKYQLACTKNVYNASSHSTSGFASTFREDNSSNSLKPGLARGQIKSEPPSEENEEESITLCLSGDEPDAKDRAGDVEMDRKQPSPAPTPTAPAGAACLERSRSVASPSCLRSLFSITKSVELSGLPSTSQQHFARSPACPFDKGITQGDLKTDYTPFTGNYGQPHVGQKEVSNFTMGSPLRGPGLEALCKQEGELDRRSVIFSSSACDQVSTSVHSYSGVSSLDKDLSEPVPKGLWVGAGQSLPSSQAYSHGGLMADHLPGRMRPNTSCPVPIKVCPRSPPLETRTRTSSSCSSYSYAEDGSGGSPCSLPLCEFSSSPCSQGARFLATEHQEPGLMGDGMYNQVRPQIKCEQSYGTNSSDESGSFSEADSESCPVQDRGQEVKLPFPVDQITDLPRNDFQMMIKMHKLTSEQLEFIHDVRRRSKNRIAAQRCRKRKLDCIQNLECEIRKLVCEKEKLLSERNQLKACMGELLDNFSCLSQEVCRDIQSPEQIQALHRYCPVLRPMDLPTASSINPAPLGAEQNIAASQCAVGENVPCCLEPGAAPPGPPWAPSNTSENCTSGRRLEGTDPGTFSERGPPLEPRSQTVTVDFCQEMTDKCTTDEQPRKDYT
The target in assay [16] is T1, Transcriptional regulator Kaiso (Homo sapiens) (UniProt Q86T24).
T1 sequence (whole entry): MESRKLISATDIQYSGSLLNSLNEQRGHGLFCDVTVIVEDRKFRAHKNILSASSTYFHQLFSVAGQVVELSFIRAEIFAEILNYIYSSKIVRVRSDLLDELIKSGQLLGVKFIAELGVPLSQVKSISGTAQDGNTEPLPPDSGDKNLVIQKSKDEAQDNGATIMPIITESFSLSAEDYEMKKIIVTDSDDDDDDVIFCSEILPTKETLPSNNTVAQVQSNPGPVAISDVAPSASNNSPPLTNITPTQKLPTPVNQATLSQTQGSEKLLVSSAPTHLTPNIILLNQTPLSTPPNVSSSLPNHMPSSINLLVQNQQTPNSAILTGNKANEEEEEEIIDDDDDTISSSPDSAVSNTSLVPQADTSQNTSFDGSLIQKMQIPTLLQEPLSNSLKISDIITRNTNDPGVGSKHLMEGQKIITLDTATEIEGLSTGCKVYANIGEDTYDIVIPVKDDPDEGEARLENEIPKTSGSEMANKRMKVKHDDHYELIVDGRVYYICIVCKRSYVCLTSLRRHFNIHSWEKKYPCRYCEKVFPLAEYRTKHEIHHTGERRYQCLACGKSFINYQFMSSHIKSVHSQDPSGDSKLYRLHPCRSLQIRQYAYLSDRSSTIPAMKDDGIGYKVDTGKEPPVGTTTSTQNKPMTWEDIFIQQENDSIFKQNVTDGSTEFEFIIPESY
Particulars: SUD4, Compound concentration 1.0 uM.

For assay [17], the target named is Transcription regulator protein BACH2 (Homo sapiens) (UniProt Q9BYV9). The settings on record: OCI-Ly1, Compound concentration 1.0 uM.
In assay [18] the target is T1, Transcriptional regulator Kaiso (Homo sapiens). Particulars: OCI-Ly1, Compound concentration 1.0 uM.
In assay [19] the target is T2, Zinc finger and BTB domain-containing protein 40 (Homo sapiens) (UniProt Q9NUA8).
T2 sequence (whole entry): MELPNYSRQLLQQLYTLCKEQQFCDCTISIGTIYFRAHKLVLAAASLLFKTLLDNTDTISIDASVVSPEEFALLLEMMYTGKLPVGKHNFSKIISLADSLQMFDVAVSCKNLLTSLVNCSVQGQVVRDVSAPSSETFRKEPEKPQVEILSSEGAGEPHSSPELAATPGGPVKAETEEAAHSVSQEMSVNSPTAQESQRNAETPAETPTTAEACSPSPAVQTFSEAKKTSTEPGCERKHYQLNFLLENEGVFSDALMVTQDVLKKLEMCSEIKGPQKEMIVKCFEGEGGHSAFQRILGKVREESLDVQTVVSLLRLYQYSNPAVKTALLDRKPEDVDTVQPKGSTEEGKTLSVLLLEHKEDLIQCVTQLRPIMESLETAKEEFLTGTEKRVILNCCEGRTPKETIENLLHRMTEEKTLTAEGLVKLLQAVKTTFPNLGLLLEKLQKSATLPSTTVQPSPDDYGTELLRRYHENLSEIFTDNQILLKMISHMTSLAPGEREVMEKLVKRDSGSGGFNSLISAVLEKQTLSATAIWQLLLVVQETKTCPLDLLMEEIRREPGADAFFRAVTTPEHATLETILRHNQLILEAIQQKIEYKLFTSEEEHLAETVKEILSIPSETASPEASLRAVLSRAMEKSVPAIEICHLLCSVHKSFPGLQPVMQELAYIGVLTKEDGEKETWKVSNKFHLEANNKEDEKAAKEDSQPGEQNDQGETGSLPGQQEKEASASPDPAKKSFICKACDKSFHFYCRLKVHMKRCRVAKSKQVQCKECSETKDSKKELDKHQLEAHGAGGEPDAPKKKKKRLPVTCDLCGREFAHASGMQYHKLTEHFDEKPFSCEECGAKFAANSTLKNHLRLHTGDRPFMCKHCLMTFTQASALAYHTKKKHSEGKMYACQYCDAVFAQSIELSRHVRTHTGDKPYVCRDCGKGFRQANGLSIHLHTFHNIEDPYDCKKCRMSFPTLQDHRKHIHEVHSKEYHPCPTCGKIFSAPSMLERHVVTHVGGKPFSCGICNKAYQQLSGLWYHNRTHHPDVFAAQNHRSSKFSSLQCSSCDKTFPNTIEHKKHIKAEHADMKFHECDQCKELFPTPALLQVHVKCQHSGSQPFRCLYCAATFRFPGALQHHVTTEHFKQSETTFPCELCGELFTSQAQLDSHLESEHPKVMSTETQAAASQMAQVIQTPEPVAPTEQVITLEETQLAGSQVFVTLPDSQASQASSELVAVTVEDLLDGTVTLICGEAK
Particulars: OCI-Ly1, Compound concentration 1.0 uM.

Mu-type opioid receptor, sequence (P35372 whole entry): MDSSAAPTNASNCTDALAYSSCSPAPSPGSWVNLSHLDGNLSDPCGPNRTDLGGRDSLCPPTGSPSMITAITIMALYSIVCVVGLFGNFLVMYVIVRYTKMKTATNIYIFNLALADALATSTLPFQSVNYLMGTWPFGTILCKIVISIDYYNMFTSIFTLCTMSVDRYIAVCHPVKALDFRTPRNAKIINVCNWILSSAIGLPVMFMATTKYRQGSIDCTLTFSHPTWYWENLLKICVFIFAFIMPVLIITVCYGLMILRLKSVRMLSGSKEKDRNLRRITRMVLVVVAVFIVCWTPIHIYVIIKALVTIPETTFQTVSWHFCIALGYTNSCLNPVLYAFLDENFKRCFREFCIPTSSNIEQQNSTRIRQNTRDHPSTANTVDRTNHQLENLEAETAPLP

`C[C@@H]1CN(c2ncc(Cl)c(Nc3ccc4c(c3)n(CCC(C)(C)O)c(=O)n4C)n2)C[C@H](C)C1(F)F`: the Ki in assay [1] (read-out: Ki) was 872 nM; in [1] (read-out: pKi (converted)) it was 851 nM; in assay [2] (read-out: Ki), 3990 nM; in assay [2] (read-out: pKi (converted)), 3890 nM. Moreover, the Tm (usually the temperature at which the thermal transition is half complete) is 38 °C in assay [3]; 54 °C in assay [4]; 57 °C in assay [5]; 40 °C in [6]; 40 °C in [7]; 40 °C in assay [8]. Also, the Tm in assay [9] was 37 °C; in assay [10], 45 °C; in assay [11], 44 °C. Moreover, the inhibition (in general, the drop in the measured response relative to a control, in per cent) in assay [12] is 34.6%; in [13], 13.2%. The LogFC in assay [14] is -1.2; in assay [15], -0.0895; in [16] it was -0.022; in assay [17] it was -0.00139; in assay [18] it was -0.0964; in [19], -0.194.
